# Test results published in patent publication US8148373B2, “Compounds” (AstraZeneca AB, priority 2008, dated 2012).
# Legend:
# [1] = molecular target: T1, Adrenergic β2 (H292 cells) (Homo sapiens, UniProt P07550); experiment: Assay for Adrenergic β2 Mediated cAMP Production (concentration response, AlphaScreen cAMP detection); assay type: cell-based; conditions: for EC50: cAMP production, 60 minutes at room temperature, 300 μM rolipram, read-out: β2 pEC50 (converted); for β2 Intrinsic activity: fraction relative to the maximum activity determined for formoterol
# T1 construct: endogenous in cells; host or cells: H292 cells
# T1 sequence (P07550 whole entry): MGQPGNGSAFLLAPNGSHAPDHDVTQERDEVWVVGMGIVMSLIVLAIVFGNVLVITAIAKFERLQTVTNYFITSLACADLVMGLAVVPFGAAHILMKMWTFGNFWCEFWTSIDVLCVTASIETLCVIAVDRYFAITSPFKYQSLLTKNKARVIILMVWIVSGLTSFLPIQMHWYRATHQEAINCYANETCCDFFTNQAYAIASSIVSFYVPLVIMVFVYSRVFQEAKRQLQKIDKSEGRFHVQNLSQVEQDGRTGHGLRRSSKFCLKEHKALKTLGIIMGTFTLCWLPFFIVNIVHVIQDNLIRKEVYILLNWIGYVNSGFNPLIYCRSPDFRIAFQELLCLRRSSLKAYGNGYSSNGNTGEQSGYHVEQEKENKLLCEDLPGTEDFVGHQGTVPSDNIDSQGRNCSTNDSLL
# Experimental: Assay for Adrenergic β2 Mediated Camp Production
# H292 cells are grown in 225 cm2 flasks incubator at 37° C., 5% CO2 in RPMI medium containing 10% (v/v) FBS (foetal bovine serum) and 2 mM L-glutamine.
# Adherent H292 cells are removed from tissue culture flasks by treatment with Accutase™ cell detachment solution for 15 minutes. Flasks are incubated for 15 minutes in a humidified incubator at 37° C., 5% CO2. Detached cells are re-suspended in RPMI media (containing 10% (v/v) FBS and 2 mM L-glutamine) at 0.1×10^6 cells per mL. 10000 cells in 100 μL are added to each well of a tissue-culture-treated 96-well plate and the cells incubated overnight in a humidified incubator at 37° C., 5% CO2. The culture media is removed and cells are washed twice with 100 μL assay buffer and replaced with 50 μL assay buffer (HBSS solution containing 10 mM HEPES pH7.4 and 5 mM glucose). Cells are rested at room temperature for 20 minutes after which time 25 μL of rolipram (1.2 mM made up in assay buffer containing 2.4% (v/v) dimethylsulphoxide) is added. Cells are incubated with rolipram for 10 minutes after which time test compounds are added and the cells are incubated for 60 minutes at room temperature. The final rolipram concentration in the assay is 300 μM and final vehicle concentration is 1% (v/v) dimethylsulphoxide. The reaction is stopped by removing supernatants, washing once with 100 μL assay buffer and replacing with 50 μL lysis buffer. The cell monolayer is frozen at −80° C. for 30 minutes (or overnight).
# AlphaScreen™ cAMP Detection
# The concentration of cAMP (cyclic adenosine monophosphate) in the cell lysate is determined using AlphaScreen™ methodology. The frozen cell plate is thawed for 20 minutes on a plate shaker then 10 μL of the cell lysate is transferred to a 96-well white plate. 40 μL of mixed AlphaScreen™ detection beads pre-incubated with biotinylated cAMP, is added to each well and the plate incubated at room temperature for 3 hours in the dark. The AlphaScreen™ signal is measured using an EnVision spectrophotometer (Perkin-Elmer Inc.) with the recommended manufacturer's settings. cAMP concentrations are determined by reference to a calibration curve determined in the same experiment using standard cAMP concentrations. Concentration response curves for agonists are constructed and data is fitted to a four parameter logistic equation to determine both the pEC50 and Intrinsic Activity. Intrinsic Activity is expressed as a fraction relative to the maximum activity determined for formoterol in each experiment.
# [2] = molecular target: T2, human muscarinic acetylcholine M3 receptor (M3-ACh) (Homo sapiens, UniProt P20309); experiment: Muscarinic 3 Receptor Binding Assay ([3H]NMS competition, SPA); conditions: [3H]NMS 0.1 nM, CHO-K1 cell membranes, 16 hours at room temperature; read-out: M3 pIC50 (converted)
# T2 construct: expressed in transfected cells; host or cells: CHO-K1 (Chinese Hamster Ovary) cell membranes
# T2 sequence (P20309 whole entry): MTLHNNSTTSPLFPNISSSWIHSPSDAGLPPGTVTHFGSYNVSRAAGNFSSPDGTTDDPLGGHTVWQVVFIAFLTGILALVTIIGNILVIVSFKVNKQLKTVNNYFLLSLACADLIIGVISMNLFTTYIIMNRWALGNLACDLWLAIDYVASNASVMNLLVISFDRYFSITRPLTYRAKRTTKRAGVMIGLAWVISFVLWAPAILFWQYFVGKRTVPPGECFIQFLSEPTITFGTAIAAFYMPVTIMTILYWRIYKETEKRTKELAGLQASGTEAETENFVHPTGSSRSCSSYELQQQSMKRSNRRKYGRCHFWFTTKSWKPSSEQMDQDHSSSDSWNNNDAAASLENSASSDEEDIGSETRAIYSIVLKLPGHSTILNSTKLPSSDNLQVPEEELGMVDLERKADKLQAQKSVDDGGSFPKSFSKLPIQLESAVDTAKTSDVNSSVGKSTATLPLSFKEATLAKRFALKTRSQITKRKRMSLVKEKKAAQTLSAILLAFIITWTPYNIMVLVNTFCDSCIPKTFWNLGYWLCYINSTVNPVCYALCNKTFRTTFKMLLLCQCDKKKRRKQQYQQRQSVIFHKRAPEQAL
# Experimental: Muscarinic 3 Receptor Binding Assay
# The affinity (pIC50) of compounds binding to the M3 receptor is determined by competition binding of [^3H]N-methyl scopolamine (NMS) to CHO-K1 (Chinese Hamster Ovary) cell membranes expressing the human muscarinic acetylcholine M3 receptor (M3-ACh) in a scintillation proximity assay (SPA) format.
# SPA beads are precoated with membranes and then incubated at 2 mg of beads per well with serial dilutions of compounds of the invention, [^3H]NMS at 0.1 nM, quarter Kd (experimentally determined dissociation constant) and assay buffer (20 mM HEPES pH 7.4 containing 5 mM MgCl2). The assay is conducted in a final volume of 200 μL, in the presence of 1% (v/v) dimethyl sulphoxide (DMSO). Total binding of [^3H]NMS is determined in the absence of competing compound and non-specific binding of [^3H]NMS is determined in the presence of 1 μM atropine. The plates are incubated for 16 hours at room temperature and then read on Wallac Microbeta™ using a normalised ^3H protocol. The pIC50, defined as the negative logarithm of the molar concentration of compound required for 50% reduction in specific [^3H]-NMS binding, is determined.
EC50 [1],β2 Intrinsic activity [1],IC50 [2],Compound
1.58 nM,1,3.98 nM,"Cc1ccc(C(=O)N2CCOC3(CCN(Cc4cc(CCNC[C@H](O)c5ccc(O)c6[nH]c(=O)sc56)ccc4F)CC3)C2)s1 [Example 29, (R)-7-(2-(4-Fluoro-3-((4-(5-methylthiophene-2-carbonyl)-1-oxa-4,9-diazaspiro[5.5]undecan-9-yl)methyl)phenethylamino)-1-hydroxyethyl)-4-hydroxybenzo[d]thiazol-2(3H)-one ditrifluoroacetate]"
2.51 nM,0.9,15.8 nM,"COC(=O)c1ccc(C(=O)N2CCOC3(CCN(Cc4cccc(CCNC[C@H](O)c5ccc(O)c6[nH]c(=O)sc56)c4)CC3)C2)s1 [Example 30, (R)-methyl 5-(9-(3-(2-(2-hydroxy-2-(4-hydroxy-2-oxo-2,3-dihydrobenzo[d]thiazol-7-yl)ethylamino)ethyl)benzyl)-1-oxa-4,9-diazaspiro[5.5]undecane-4-carbonyl)thiophene-2-carboxylate ditrifluoroacetate]"
5.01 nM,0.9,63.1 nM,"COC(=O)c1ccc(C(=O)N2CCOC3(CCN(Cc4cccc(CCNC[C@H](O)c5ccc(O)c6[nH]c(=O)ccc56)c4)CC3)C2)s1 [Example 31, (R)-Methyl 5-(9-(3-(2-(2-hydroxy-2-(8-hydroxy-2-oxo-1,2-dihydroquinolin-5-yl)ethylamino)ethyl)benzyl)-1-oxa-4,9-diazaspiro[5.5]undecane-4-carbonyl)thiophene-2-carboxylate ditrifluoroacetate]"
3.16 nM,1.1,39.8 nM,"Cc1ccc(C(=O)N2CCOC3(CCN(Cc4cc(CCNC[C@H](O)c5ccc(O)c6[nH]c(=O)sc56)cc(F)c4F)CC3)C2)s1 [Example 32, (R)-7-(2-(3,4-Difluoro-5-((4-(5-methylthiophene-2-carbonyl)-1-oxa-4,9-diazaspiro[5.5]undecan-9-yl)methyl)phenethylamino)-1-hydroxyethyl)-4-hydroxybenzo[d]thiazol-2(3H)-one ditrifluoroacetate]"
6.31 nM,1,12.6 nM,"Cc1ccc(C(=O)N2CCOC3(CN(Cc4cccc(CCNC[C@H](O)c5ccc(O)c6[nH]c(=O)sc56)c4)C3)C2)s1 [Example 33, (R)-4-Hydroxy-7-(1-hydroxy-2-(3-((8-(5-methylthiophene-2-carbonyl)-5-oxa-2,8-diazaspiro[3.5]nonan-2-yl)methyl)phenethylamino)ethyl)benzo[d]thiazol-2(3H)-one ditrifluoroacetate]"
3.16 nM,1,20 nM,"Cc1ccc(C(=O)N2CCOC3(CCN(Cc4ccc(F)c(CCNC[C@H](O)c5ccc(O)c6[nH]c(=O)sc56)c4F)CC3)C2)s1 [Example 34, (R)-7-(2-(2,6-Difluoro-3-((4-(5-methylthiophene-2-carbonyl)-1-oxa-4,9-diazaspiro[5.5]undecan-9-yl)methyl)phenethylamino)-1-hydroxyethyl)-4-hydroxybenzo[d]thiazol-2(3H)-one ditrifluoroacetate]"
12.6 nM,1,25.1 nM,"Cc1ccc(C(=O)N2CCOC3(CCN(Cc4ccc(F)c(CCNC[C@H](O)c5ccc(O)c6[nH]c(=O)ccc56)c4F)CC3)C2)s1 [Example 35, (R)-5-(2-(2,6-Difluoro-3-((4-(5-methylthiophene-2-carbonyl)-1-oxa-4,9-diazaspiro[5.5]undecan-9-yl)methyl)phenethylamino)-1-hydroxyethyl)-8-hydroxyquinolin-2(1H)-one ditrifluoroacetate]"
6.31 nM,1,0.501 nM,"CC(C)c1nc(C(=O)N2CCOC3(CCN(Cc4cc(CCNC[C@H](O)c5ccc(O)c6[nH]c(=O)sc56)cs4)CC3)C2)cs1 [Example 36, (R)-4-Hydroxy-7-(1-hydroxy-2-(2-(5-((4-(2-isopropylthiazole-4-carbonyl)-1-oxa-4,9-diazaspiro[5.5]undecan-9-yl)methyl)thiophen-3-yl)ethylamino)ethyl)benzo[d]thiazol-2(3H)-one ditrifluoroacetate]"
3.16 nM,0.9,3.16 nM,"Cc1ccc(C(=O)N2CC(F)(F)OC3(CCN(Cc4cccc(CCNC[C@H](O)c5ccc(O)c6[nH]c(=O)ccc56)c4)CC3)C2)s1 [Example 37, (R)-5-(2-(3-((2,2-Difluoro-4-(5-methylthiophene-2-carbonyl)-1-oxa-4,9-diazaspiro[5.5]undecan-9-yl)methyl)phenethylamino)-1-hydroxyethyl)-8-hydroxyquinolin-2(1H)-one ditrifluoroacetate]"
20 nM,0.8,2.51 nM,"Cc1ccc(C(=O)N2CCOC3(CCN(Cc4cccc(OCCNC[C@H](O)c5ccc(O)c6[nH]c(=O)sc56)c4)CC3)C2)s1 [Example 38, (R)-4-Hydroxy-7-(1-hydroxy-2-(2-(3-((4-(5-methylthiophene-2-carbonyl)-1-oxa-4,9-diazaspiro[5.5]undecan-9-yl)methyl)phenoxy)ethylamino)ethyl)benzo[d]thiazol-2(3H)-one ditrifluoroacetate]"
100 nM,0.9,0.316 nM,"CC(C)c1nc(C(=O)N2CCOC3(CCN(Cc4cccc(C(F)CNC[C@H](O)c5ccc(O)c6[nH]c(=O)sc56)c4)CC3)C2)cs1 (stereo partly drawn) [Example 39, 7-((1R)-2-(2-Fluoro-2-(3-((4-(2-isopropylthiazole-4-carbonyl)-1-oxa-4,9-diazaspiro[5.5]undecan-9-yl)methyl)phenyl)ethylamino)-1-hydroxyethyl)-4-hydroxybenzo[d]thiazol-2(3H)-one ditrifluoroacetate]"
12.6 nM,1.1,0.398 nM,"CC(C)c1nc(C(=O)N2CCOC3(CCN(Cc4cc(CCNC[C@H](O)c5ccc(O)c6[nH]c(=O)sc56)ccc4F)CC3)C2)cs1 [Example 40, (R)-7-(2-(4-Fluoro-3-((4-(2-isopropylthiazole-4-carbonyl)-1-oxa-4,9-diazaspiro[5.5]undecan-9-yl)methyl)phenethylamino)-1-hydroxyethyl)-4-hydroxybenzo[d]thiazol-2(3H)-one ditrifluoroacetate]"
6.31 nM,1.1,126 nM,"O=C(c1csc(-c2ccccc2)n1)N1CCOC2(CCN(Cc3cc(F)cc(CCNC[C@H](O)c4ccc(O)c5[nH]c(=O)sc45)c3)CC2)C1 [Example 41, (R)-7-(2-(3-Fluoro-5-((4-(2-phenylthiazole-4-carbonyl)-1-oxa-4,9-diazaspiro[5.5]undecan-9-yl)methyl)phenethylamino)-1-hydroxyethyl)-4-hydroxybenzo[d]thiazol-2(3H)-one ditrifluoroacetate]"
7.94 nM,1,0.631 nM,"CC(C)c1nc(C(=O)N2CCOC3(CCN(Cc4cc(F)cc(CCNC[C@H](O)c5ccc(O)c6[nH]c(=O)sc56)c4)CC3)C2)cs1 [Example 42, (R)-7-(2-(3-Fluoro-5-((4-(2-isopropylthiazole-4-carbonyl)-1-oxa-4,9-diazaspiro[5.5]undecan-9-yl)methyl)phenethylamino)-1-hydroxyethyl)-4-hydroxybenzo[d]thiazol-2(3H)-one ditrifluoroacetate]"
